Results reported in US20260108455A1, “DEVICE FOR SUSTAINED CONTROLLED RELEASE OF A […] ACTIVE SUBSTANCE AND USES THEREOF” (Hylomorph AG, priority 2022, published 2026).
Structures can show the parent of a compound that is named as a salt.

How the values were obtained:
[1] = Drug elution testing (in vitro release) of PLGA films; format: physicochemical; settings: all prototypes, phase 2
Source text: The main goals are summarized below: • 1. Prepare placebo films with multiple grades of PLGA polymers (Table 1) using solvent casting method. Evaluate both single and dual layer film designs. • 2. […] Create HPLC assay and drug elution method based on provided information. Optimize method for use in formulation development.

[2] = Solubility in water (distilled and deionized water); format: physicochemical; settings: 20 °C, pH 7, water, neutral pH, i.e. pH of 7 at room temperature
Experimental: Solubility is a chemical property of a molecule in a specific solvent which depends on the chemistry of the two and on the environmental conditions of temperature and pH. […] This at room temperature (20 deg) or body temperature (37 deg) and a pH of 7. Solubility is measured in distilled and deionized water and is given in mg/mL.

degradation during elution testing [1]	solubility [2]	Compound
Significant degradation	–	CN(C)c1ccc(O)c2c1C[C@H]1C[C@H]3[C@H](N(C)C)C(O)=C(C(N)=O)C(=O)[C@@]3(O)C(O)=C1C2=O [Minocycline HCl, Minocycline Hydrochloride]
–	≤ 2500 µg/mL	CO[C@H]1/C=C/O[C@@]2(C)Oc3c(C)c(O)c4c(O)c(c(/C=N/N5CCN(C)CC5)c(O)c4c3C2=O)NC(=O)/C(C)=C\C=C\[C@H](C)[C@H](O)[C@@H](C)[C@@H](O)[C@@H](C)[C@H](OC(C)=O)[C@@H]1C [Rifampicin]
